For this test, the system named is full thickness porcine skin. Description: Phage display library (PDL) screening for skin penetrating peptides on porcine skin in Franz diffusion cells. The settings on record: for Frequency (how many times a same peptide sequence was identified when 31 peptides were randomly picked from the receptor compartment): after third round of screening, phage-displayed 12-mer peptides, four different skin samples (n = 4), receptor collected after 24 hours. The test is classed as in vitro ADME. Here is the method: Phage Display Library (PDL) screening was performed on full thickness porcine skin using Franz diffusion cells. Porcine skin was sandwiched in between the donor and receptor compartments in such a way that SC faced the donor compartment. Phosphate-buffered saline (PBS: 10 mM), pH 7.4 (12 ml) was added in the receptor compartment. The skin was equilibrated at 37° C. for 0.5-1 hours before the experiment. The skin integrity was determined by measuring the skin conductivity.
To perform PDL screening, 1×10^11 plaque forming units (pfu) of phages from a 12-mer phage display peptide library (PDL) were added into the donor compartment and covered with parafilm to maintain the occlusive condition. Phage particles which permeated across the skin were collected from the receptor chamber after 24 hours and amplified using a standard M13 phage amplification protocol. Amplified pool of phages (1×10^11 pfu) was loaded again in the donor chamber for another round of screening. In this way, three rounds of screenings were performed.
After third round of screening, DNAs were isolated from phages, which crossed the skin consistently in higher numbers, and sent for DNA sequencing to analyze the peptide present on their surface. After three round of screening, seven (7) peptide sequences that consistently crossed the skin were identified (see Table 3). […] The identified peptides, SEQ ID NOs: 1-7, are referred to herein as skin penetrating peptides (SPPs).

Take “AYNAGSILENNF [YNAGSILENNF (SEQ ID NO: 5), 12-mer skin penetrating peptide (SPP) identified by phage display library screening on porcine skin]”: the “Frequency (how many times a same peptide sequence was identified when 31 peptides were randomly picked from the receptor compartment)” value (shortened to “Frequency”) is given as 2 out of 31. Still for that read-out and setting: the result for “GYGFSNTNSFFV [GYGFSNTNSFFV (SEQ ID NO: 3), 12-mer skin penetrating peptide (SPP) identified by phage display library screening on porcine skin]” reads 3 out of 31. As to “HIITDPNMAEYL [HIITDPNMAEYL (SEQ ID NO: 1), 12-mer skin penetrating peptide (SPP) identified by phage display library screening on porcine skin]”, the “Frequency” value was 8 out of 31. Besides, the “Crossing of the skin by phage displaying the peptide (in words)” value (after three rounds of screening, full thickness porcine skin) is on record as “crossed the skin at very high frequency”. With “LVPDRMTAISRA [LVPDRMTAISRA (SEQ ID NO: 6), 12-mer skin penetrating peptide (SPP) identified by phage display library screening on porcine skin]”, the “Frequency” value is on record as 2 out of 31. On to “NSLRNYDFLITM [NSLRNYDFLITM (SEQ ID NO: 7), 12-mer skin penetrating peptide (SPP) identified by phage display library screening on porcine skin]”, for which the “Frequency” value is recorded as 2 out of 31. Regarding “SHMQNRPASDEH [SHMQNRPASDEH (SEQ ID NO: 4), 12-mer skin penetrating peptide (SPP) identified by phage display library screening on porcine skin]”, the “Frequency” value is recorded as 3 out of 31. As for “SYTQRADSTTLH [SYTQRADSTTLH (SEQ ID NO: 2), 12-mer skin penetrating peptide (SPP) identified by phage display library screening on porcine skin]”, the “Frequency” value is 3 out of 31.

The values are drawn from US20170258930A1, “SKIN PENETRATING PEPTIDES (SPPS) AND METHODS OF USE THEREFOR” (The Regents of the University of California, priority 2014, published 2017).
